# Measured values: US20230167088A1, “1-PYRAZINYLPYRAZOLYL-3-OXYALKYL ACIDS AND THEIR DERIVATIVES, AND THEIR USE FOR CONTROL OF UNDESIRED PLANT GROWTH” (BAYER AKTIENGESELLSCHAFT, priority 2020, published 2023)
# Columns and labels:
# MATIN [1] = assay: Herbicidal post-emergence action 1b (twin sowing, 1280 g/ha); type: in vivo, Matricaria inodora; conditions: dosage 1280 g/ha, visual rating about 3 weeks after treatment
# Protocol: (§1) [table] b) Seeds of mono- and dicotyledonous weed plants are placed in plastic pots in sandy loam soil (twin sowing with one species each of mono- or dicotyledonous weed plants per pot), covered with soil and cultivated in a greenhouse under controlled growth conditions. 2 to 3 weeks after sowing, the test plants are treated at the one-leaf stage. The compounds of the invention, formulated in the form of wettable powders (WP) or as emulsion concentrates (EC), are applied to the green parts of the plants as aqueous suspension or emulsion with addition of 0.5% additive at a water application rate equivalent to 600 litres per hectare. After the test plants have been kept in the greenhouse under optimum growth conditions for about 3 weeks, the activity of the preparations is rated visually in comparison to untreated controls. For example, 100% activity=the plants have died, 0% activity=like control plants. Tables A16 to A21 below show the effects of selected compounds of the general formula (I) according to Tables 1 and 2 on various harmful plants and at an application rate corresponding to 1280 g/ha, which were obtained by the experimental procedure mentioned above.
# POAAN [2] = assay: as above; type: in vivo, Poa annua; conditions: dosage 1280 g/ha, visual rating about 3 weeks after treatment
# Protocol: as §1
# MATIN [3] = assay: Herbicidal pre-emergence action 2b (doubly sown, 1280 g/ha); type: in vivo, Matricaria inodora; conditions: doubly sown pots, dosage 1280 g/ha, visual scoring after about 3 weeks
# From the text: (§2) [table] b) Seeds of mono- and dicotyledonous weed plants are placed in plastic pots in sandy loam soil (doubly sown with one species each of mono- or dicotyledonous weed plants per pot) and covered with soil. The compounds of the invention, formulated in the form of wettable powders (WP) or as emulsion concentrates (EC), are then applied onto the surface of the covering soil as aqueous suspension or emulsion with addition of 0.5% additive at a water application rate equivalent to 600 litres per hectare. After the treatment, the pots are placed in a greenhouse and kept under good growth conditions for the trial plants. After about 3 weeks, the effect of the preparations is scored visually in comparison with untreated controls as percentages. For example, 100% activity=the plants have died, 0% activity=like control plants. Tables B16 to B21 below show the effects of selected compounds of the general formula (I) according to Tables 1 and 2 on various harmful plants and at an application rate corresponding to 1280 g/ha, which were obtained by the experimental procedure mentioned above.
# STEME [4] = assay: as above; type: in vivo, Stellaria media; conditions: doubly sown pots, dosage 1280 g/ha, visual scoring after about 3 weeks
# From the text: as §2
# DIGSA = assay: as above; type: in vivo, Digitaria sanguinalis; conditions: doubly sown pots, dosage 1280 g/ha, visual scoring after about 3 weeks
# From the text: as §2
# POAAN [5] = assay: as above; type: in vivo, Poa annua; conditions: doubly sown pots, dosage 1280 g/ha, visual scoring after about 3 weeks
# From the text: as §2
# AMARE [6] = assay: as above; type: in vivo, Amaranthus retroflexus; conditions: doubly sown pots, dosage 1280 g/ha, visual scoring after about 3 weeks
# From the text: as §2
# STEME [7] = assay: Herbicidal post-emergence action 1b (twin sowing, 1280 g/ha); type: in vivo, Stellaria media; conditions: dosage 1280 g/ha, visual rating about 3 weeks after treatment
# Protocol: as §1
# SETVI [8] = assay: Herbicidal pre-emergence action 2a (greenhouse pots, visual scoring); type: in vivo, Setaria viridis; conditions: dosage 320 g/ha, visual scoring after about 3 weeks vs untreated controls
# From the text: (§3) [table] a) Seeds of monocotyledonous and dicotyledonous weed plants and crop plants are placed in plastic or organic plant pots and covered with soil. The compounds of the invention, formulated in the form of wettable powders (WP) or as emulsion concentrates (EC), are then applied onto the surface of the covering soil as aqueous suspension or emulsion with addition of 0.5% additive at a water application rate of 600 1/ha (converted). After the treatment, the pots are placed in a greenhouse and kept under good growth conditions for the trial plants. After about 3 weeks, the effect of the preparations is scored visually in comparison with untreated controls as percentages. For example, 100% activity=the plants have died, 0% activity=like control plants. Tables B1 to B15 below show the effects of selected compounds of the general formula (I) according to Tables 1 and 2 on various harmful plants and an application rate corresponding to 320 g/ha and/or 80 g/ha, which were obtained by the experimental procedure mentioned above.
# ABUTH = assay: Herbicidal post-emergence action 1a (greenhouse pots, visual rating); type: in vivo, Abutilon theophrasti; conditions: visual rating about 3 weeks after treatment
# Protocol: (§4) [table] a) Seeds of monocotyledonous and dicotyledonous weeds and crop plants are placed in sandy loam in plastic or organic plant pots, covered with soil and cultivated in a greenhouse under controlled growth conditions. 2 to 3 weeks after sowing, the test plants are treated at the one-leaf stage. The compounds of the invention, formulated in the form of wettable powders (WP) or as emulsion concentrates (EC), are then sprayed onto the green parts of the plants as aqueous suspension or emulsion with addition of 0.5% additive at a water application rate of 600 1/ha (converted). After the test plants have been kept in the greenhouse under optimum growth conditions for about 3 weeks, the activity of the preparations is rated visually in comparison to untreated controls. For example, 100% activity=the plants have died, 0% activity=like control plants. Tables A1 to A15 below show the effects of selected compounds of the general formula (I) according to Tables 1 and 2 on various harmful plants and an application rate corresponding to 320 g/ha and/or 80 g/ha, which were obtained by the experimental procedure mentioned above.
# AMARE [9] = assay: Herbicidal pre-emergence action 2a (greenhouse pots, visual scoring); type: in vivo, Amaranthus retroflexus; conditions: dosage 320 g/ha, visual scoring after about 3 weeks vs untreated controls
# From the text: as §3
# AVEFA [10] = assay: Herbicidal post-emergence action 1a (greenhouse pots, visual rating); type: in vivo, Avena fatua; conditions: rated visually about 3 weeks after treatment, 100% = plants have died, 0% = like control plants
# Protocol: as §4
# ECHCG [11] = assay: as above; type: in vivo, Echinochloa crus-galli; conditions: Dosage 320 g/ha; rated visually about 3 weeks after treatment; 100% = plants have died, 0% = like control plants
# Protocol: as §4
# MATIN [12] = assay: as above; type: in vivo, Matricaria inodora; conditions: dosage 320 g/ha, visual rating about 3 weeks after treatment
# Protocol: as §4
# ALOMY [13] = assay: Herbicidal pre-emergence action 2a (greenhouse pots, visual scoring); type: in vivo, Alopecurus myosuroides; conditions: dosage 320 g/ha, visual scoring after about 3 weeks
# From the text: as §3
# ALOMY [14] = assay: Herbicidal post-emergence action 1a (greenhouse pots, visual rating); type: in vivo, Alopecurus myosuroides; conditions: rated visually about 3 weeks after treatment, 100% = plants have died, 0% = like control plants
# Protocol: as §4
# POLCO [15] = assay: as above; type: in vivo, Polygonum convolvulus; conditions: visual rating about 3 weeks after treatment
# Protocol: as §4
# LOLRI [16] = assay: Herbicidal pre-emergence action 2a (greenhouse pots, visual scoring); type: in vivo, Lolium rigidum; conditions: dosage 320 g/ha, visual scoring after about 3 weeks vs untreated controls
# From the text: as §3
# VERPE [17] = assay: as above; type: in vivo, Veronica persica; conditions: dosage 320 g/ha, visual scoring after about 3 weeks vs untreated controls
# From the text: as §3
# VERPE [18] = assay: Herbicidal post-emergence action 1a (greenhouse pots, visual rating); type: in vivo, Veronica persica; conditions: visual rating about 3 weeks after treatment
# Protocol: as §4
# LOLRI [19] = assay: as above; type: in vivo, Lolium rigidum; conditions: Dosage 320 g/ha; rated visually about 3 weeks after treatment; 100% = plants have died, 0% = like control plants
# Protocol: as §4
# AMARE [20] = assay: as above; type: in vivo, Amaranthus retroflexus; conditions: visual rating about 3 weeks after treatment
# Protocol: as §4
# SETVI [21] = assay: as above; type: in vivo, Setaria viridis; conditions: Dosage 320 g/ha; rated visually about 3 weeks after treatment; 100% = plants have died, 0% = like control plants
# Protocol: as §4
# VIOTR [22] = assay: Herbicidal pre-emergence action 2a (greenhouse pots, visual scoring); type: in vivo, Viola tricolor; conditions: dosage 320 g/ha, visual scoring after about 3 weeks vs untreated controls
# From the text: as §3
# VIOTR [23] = assay: Herbicidal post-emergence action 1a (greenhouse pots, visual rating); type: in vivo, Viola tricolor; conditions: dosage 320 g/ha, visual rating about 3 weeks after treatment
# Protocol: as §4
# ECHCG [24] = assay: Herbicidal pre-emergence action 2b (doubly sown, 1280 g/ha); type: in vivo, Echinochloa crus-galli; conditions: doubly sown pots, dosage 1280 g/ha, visual scoring after about 3 weeks
# From the text: as §2
# AVEFA [25] = assay: Herbicidal pre-emergence action 2a (greenhouse pots, visual scoring); type: in vivo, Avena fatua; conditions: dosage 320 g/ha, visual scoring after about 3 weeks
# From the text: as §3
# POLCO [26] = assay: as above; type: in vivo, Polygonum convolvulus; conditions: dosage 320 g/ha, visual scoring after about 3 weeks vs untreated controls
# From the text: as §3
structure (smiles),measurement,setting,value
COC(=O)[C@@H](C)Oc1nn(-c2cnccn2)c(-c2cnc(F)c(F)c2)c1Br [Example I-43],Post-emergence action at 1280 g/ha against MATIN in %,MATIN [1],100%
same,Post-emergence action at 1280 g/ha against POAAN in %,POAAN [2],100%
same,Pre-emergence action at 1280 g/ha against MATIN in %,MATIN [3],90%
same,Pre-emergence action at 1280 g/ha against STEME in %,STEME [4],100%
same,Pre-emergence action at 1280 g/ha against DIGSA in %,DIGSA,100%
same,Pre-emergence action at 1280 g/ha against POAAN in %,POAAN [5],100%
same,Pre-emergence action at 1280 g/ha against AMARE in %,AMARE [6],100%
same,Post-emergence action at 1280 g/ha against STEME in %,STEME [7],90%
COC(=O)[C@@H](C)Oc1nn(-c2cnccn2)c(-c2ccc(F)nc2)c1I [Example I-89],Pre-emergence action against SETVI in %,SETVI [8],100%
same,Post-emergence action against ABUTH in %,ABUTH; dosage 80 g/ha,90%
same,Post-emergence action against ABUTH in %,ABUTH; dosage 320 g/ha,90%
same,Pre-emergence action against AMARE in %,AMARE [9],100%
same,Post-emergence action against AVEFA in %,AVEFA [10]; Dosage 80 g/ha,90%
same,Post-emergence action against AVEFA in %,AVEFA [10]; Dosage 320 g/ha,100%
same,Post-emergence action against ECHCG in %,ECHCG [11],80%
same,Post-emergence action against MATIN in %,MATIN [12],80%
same,Pre-emergence action against ALOMY in %,ALOMY [13],100%
same,Post-emergence action against ALOMY in %,ALOMY [14]; Dosage 80 g/ha,80%
same,Post-emergence action against ALOMY in %,ALOMY [14]; Dosage 320 g/ha,100%
same,Post-emergence action against POLCO in %,POLCO [15]; dosage 80 g/ha,90%
same,Post-emergence action against POLCO in %,POLCO [15]; dosage 320 g/ha,90%
same,Pre-emergence action against LOLRI in %,LOLRI [16],100%
same,Pre-emergence action against VERPE in %,VERPE [17],100%
same,Post-emergence action against VERPE in %,VERPE [18]; dosage 80 g/ha,80%
same,Post-emergence action against VERPE in %,VERPE [18]; dosage 320 g/ha,90%
same,Post-emergence action against LOLRI in %,LOLRI [19],100%
same,Post-emergence action against AMARE in %,AMARE [20]; dosage 80 g/ha,90%
same,Post-emergence action against AMARE in %,AMARE [20]; dosage 320 g/ha,90%
same,Post-emergence action against SETVI in %,SETVI [21],90%
O=C(O)COc1nn(-c2cnccn2)c(-c2ccc(F)nc2)c1C1CC1 [Example I-83],Post-emergence action against MATIN in %,MATIN [12],80%
same,Post-emergence action against ALOMY in %,ALOMY [14]; Dosage 80 g/ha,80%
same,Post-emergence action against ALOMY in %,ALOMY [14]; Dosage 320 g/ha,80%
COC(=O)[C@@H](C)Oc1nn(-c2cnccn2)c(-c2ccc(F)nc2)c1C#N [Example I-25],Post-emergence action at 1280 g/ha against POAAN in %,POAAN [2],90%
same,Pre-emergence action against VIOTR in %,VIOTR [22],90%
same,Pre-emergence action at 1280 g/ha against MATIN in %,MATIN [3],90%
same,Pre-emergence action against ALOMY in %,ALOMY [13],80%
same,Post-emergence action against ALOMY in %,ALOMY [14]; Dosage 320 g/ha,80%
same,Post-emergence action against VIOTR in %,VIOTR [23],90%
same,Pre-emergence action at 1280 g/ha against DIGSA in %,DIGSA,100%
same,Pre-emergence action at 1280 g/ha against ECHCG in %,ECHCG [24],90%
same,Pre-emergence action against VERPE in %,VERPE [17],90%
same,Pre-emergence action at 1280 g/ha against POAAN in %,POAAN [5],100%
same,Pre-emergence action at 1280 g/ha against AMARE in %,AMARE [6],100%
same,Post-emergence action against AMARE in %,AMARE [20]; dosage 320 g/ha,80%
same,Post-emergence action at 1280 g/ha against STEME in %,STEME [7],90%
C[C@@H](Oc1nn(-c2nccnc2Cl)c(-c2ccc(F)nc2)c1Br)C(=O)O [Example I-75],Pre-emergence action against AMARE in %,AMARE [9],90%
same,Pre-emergence action against VIOTR in %,VIOTR [22],80%
same,Pre-emergence action against AVEFA in %,AVEFA [25],90%
same,Pre-emergence action against ALOMY in %,ALOMY [13],100%
same,Pre-emergence action against LOLRI in %,LOLRI [16],100%
same,Pre-emergence action against POLCO in %,POLCO [26],80%
